Test results taken from patent publication US20230338322A1, “GLYCERYLTRIACETATE (GTA) FOR USE IN IMPROVING BREATHING” (YISSUM RESEARCH DEVELOPMENT COMPANY OF THE HEBREW …, priority 2020, published 2023).

Legend:
[1] = tested on: SARS-Cov2 (COVID-19 infection); test: Treating SARS-Cov2 infected patients (COVID-19 infection); assay type: in vivo, human; details: all 11 patients, age 60-89, PCR positive with respiratory symptoms; softgel GTA 12 ml daily oral, 5-10 days, no other medication
From the text: Eleven subjects, age 60-89 with various comorbidities, who were positive for COVID-19 infection by the PCR test and already developed respiratory-related symptoms of the disease. […] Treatment duration was between 5-10 days, according to recovery rate.

[2] = Treating Long-COVID (post-corona) patients with GTA capsules; assay type: in vivo, human; details: softgel GTA 12 ml daily oral
From the text: Long COVID is a range of symptoms that can last weeks or months after first being infected with the virus that causes COVID-19 or can appear weeks after infection. 5 Long-Covid subjects who recovered from COVID-19 infection (=became PCR negative) but still have significant breathing problems that compromised their daily physical activities. […] Treatment duration was between 5-10 days, according to recovery rate.

swine flu infection = details: human, in vivo, po
[3] = Madhavarao 2009, Segel 2011; cited from earlier work
tumor-model = details: GTA alone versus combination with chemotherapy (TMZ); WO13013061; cited from earlier work
[4] = aqueous solution; cited from earlier work
[5] = Treating asthmatic patients with GTA capsules
Description: These patients where orally administered softgel capsules filled with GTA at a daily dose of 12 ml, either 4 ml three times a day or 6 ml twice a day, during or immediately after meal. Treatment duration was 7 days.

[6] = Treating a bronchitis patient with GTA capsules; details: softgel GTA 12 ml daily for a total of 5 days
[7] = Treating lung cancer patient with breathing difficulties
Description: The patient started taking pure glyceryl-triacetate (GTA), encapsulated in hard-shell Vegicaps (produced by Capsugel), 12 ml a day, divided among 3 meals. After 3 days the patient increased the dose to 24 ml a day and after additional 3 days they consumed a daily dose of 30 ml GTA for a period of 1 month.

CC(=O)OCC(COC(C)=O)OC(C)=O [GTA, Glyceryltriacetate]
recovery from the disease [1]: fully recovered | time to recovery from breathing problems ([2]; 5 Long-Covid patients): 5 to 10 days | recovery from breathing problems ([2]; all 5 Long-Covid patients, no other medication): fully or almost fully recovered | patient's healing compared to non-treated patients (swine flu infection): acceleration of patient's healing | therapeutic benefit in Canavan disease clinical trials [3]: failed to show any therapeutic benefit | improvement in in-vivo tumor-model (tumor-model): not by GTA by itself | water solubility limit [4]: 0.25% | duration of the beneficial effect ([5]; after 7 days of GTA 12 ml daily, then 2nd round required): 1-8 weeks | patient-reported breathing ([5]; all 4 chronic asthmatic patients, softgel GTA 12 ml daily oral, 7 days, including giving up inhalation): outstanding improvement | patient-reported coughing and breathing [6]: less to no coughing, improved breathing | tumor mass on CT ([7]; GTA up to 30 ml daily for 1 month): no improvement in tumor mass | self-reported breathing ([7]; within 2 days after start of GTA 12 ml a day): breathing is much easier | use of inhaled Salbutamol ([7]; within a week, GTA 12 ml then 24 ml a day): stopped taking Salbutamol | walking distance without taking a break ([7]; within a week, before treatment not more than ~50 m): hundreds of meters
